Data as given in US6117975A, “Melanocortin receptor polypeptides MC-3, MC-4, and MC-5” (The Regents of the University of Michigan, priority 1996, dated 2000).
No end group written: not given here.

Tests used:
MC4 receptor [1] = target: T1, MC4 receptor (Homo sapiens, UniProt P32245); assay: intracellular cAMP content in Hepa cells transfected with the MC4 receptor; type: cell-based
T1 construct: expressed in transfected cells; host or cells: COS-1 (transient, lipofection); Hepa rat hepatoma; CMVneo vector

MC1 receptor [2] = target: T2, MC1 receptor (Homo sapiens, UniProt Q01726, R163Q/S90T); assay: cAMP generation in L-cells transfected with the MC1 receptor; type: cell-based
T2 construct: expressed in transfected cells
T2 sequence (Q01726 1-317 S90T/R163Q): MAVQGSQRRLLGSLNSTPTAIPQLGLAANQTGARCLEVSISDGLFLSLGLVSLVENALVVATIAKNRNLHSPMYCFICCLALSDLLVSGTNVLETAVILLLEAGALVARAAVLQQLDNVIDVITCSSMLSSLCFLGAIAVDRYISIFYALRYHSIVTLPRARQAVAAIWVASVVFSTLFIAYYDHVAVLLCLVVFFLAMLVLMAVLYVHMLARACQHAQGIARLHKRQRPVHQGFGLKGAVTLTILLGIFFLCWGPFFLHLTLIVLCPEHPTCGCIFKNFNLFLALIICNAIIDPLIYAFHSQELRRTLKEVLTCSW
Source text: (§1) Receptor Expression. […] The sequences were subsequently checked by nucleotide sequencing to insure that no sequence errors were induced by PCR. L-cells (a mouse fibroblast-like cell line) were transfected using a calcium phosphate co-precipitation method as described in Chen, C. A. et al. Bio/Techniques 6:632-638 (1988). Permanently transfected L-cells were selected by resistance to the neomysin analogue G418, and receptor mRNA expression was checked by Northern blot analysis. […] COS-1 cells which were transiently transfected with the CMVneo/MC4R gene construct by lipofection as described in Feigner, P. L. et al., PNAS (USA) 84:7413-7417 using the Lipofectin Reagent (Life Technologies Inc.) were split into 12-well plates after 24 hr and assayed 36 hr post-transfection.
(§2) cAMP Assays. For these assays a cAMP assay kit (TRK 432, Amersham Corp.) was employed. […] The cells were maintained in Dulbecco's modified Eagle's medium (GIBCO) containing 4.5 g/100 ml glucose, 10% fetal calf serum, 100 units/ml penicillin and streptomycin, 1 mM sodium pyruvate, and 1 mg/ml Geneticin. […] An aliquot (0.5 ml) of Earle's balanced salt solution was placed into each well along with 5 μl of 2×10^-2 M isobutylmethylxanthine. Varying concentrations of agonist were added, and the cells were incubated to 30 min at 37° C. Ice-cold 30% trichloracetic acid (500 μl/well) was added to stop the reaction and precipitate cellular protein. The cells were scraped and transferred to 16×150-mm glass tubes, then placed on ice for 30 min. The precipitate was then centrifuged for 10 min at 1,900×g, and the supernatant was ether extracted, lyophilized, and resuspended in 50 mM Tris, 2 mM EDTA (pH 7.5). cAMP content was then measured by a competitive binding assay according to the assay instructions.

MC4 receptor [3] = target: T1, MC4 receptor; assay: cAMP generation in L-cells transfected with the MC4 receptor gene; type: cell-based
Source text: as §1, §2

MC3 receptor [4] = target: T3, MC3 receptor (Homo sapiens, UniProt P41968); assay: cAMP generation in L-cells transfected with the MC3 receptor; type: cell-based; design: these were utilized to obtain full-length genomic clones by screening a genomic library; expressed in transfected cells; CMVneo vector
Source text: as §1, §2

mMC5 receptor = target: T4, mMC5 receptor (Mus musculus, UniProt P41149); assay: cAMP generation in L-cells transfected with the mMC5 receptor; type: cell-based
T4 construct: expressed in transfected cells
Source text: as §1, §2

MC1 receptor [5] = conditions: Mountjoy et al. 1992; cited from earlier work
MC3 receptor [6] = target: T3, MC3 receptor; assay: intracellular cAMP content in Hepa cells transfected with the MC3 receptor; type: cell-based; design: these were utilized to obtain full-length genomic clones by screening a genomic library; expressed in transfected cells; CMVneo vector
Description: Receptor Expression. […] The sequences were subsequently checked by nucleotide sequencing to insure that no sequence errors were induced by PCR. […] A rat hepatoma cell line (Hepa) which lacks endogenous melanocortin receptors was also transfected with the CMVneo/MC3R and CMVneo/MC4R constructs.
cAMP Assays. For these assays a cAMP assay kit (TRK 432, Amersham Corp.) was employed. Cells transfected with the receptors were grown to confluence in 12-well (2.4×1.7 cm) tissue culture plates. The cells were maintained in Dulbecco's modified Eagle's medium (GIBCO) containing 4.5 g/100 ml glucose, 10% fetal calf serum, 100 units/ml penicillin and streptomycin, 1 mM sodium pyruvate, and 1 mg/ml Geneticin. For assays, this medium was removed and cells were washed twice with Earle's balanced salt solution containing 10 mM Hepes (pH 7.4), 1 mM glutamine, 26.5 mM sodium bicarbonate, and 100 mg/ml bovine serum albumin. An aliquot (0.5 ml) of Earle's balanced salt solution was placed into each well along with 5 μl of 2×10^-2 M isobutylmethylxanthine. Varying concentrations of agonist were added, and the cells were incubated to 30 min at 37° C. Ice-cold 30% trichloracetic acid (500 μl/well) was added to stop the reaction and precipitate cellular protein. The cells were scraped and transferred to 16×150-mm glass tubes, then placed on ice for 30 min. The precipitate was then centrifuged for 10 min at 1,900×g, and the supernatant was ether extracted, lyophilized, and resuspended in 50 mM Tris, 2 mM EDTA (pH 7.5). cAMP content was then measured by a competitive binding assay according to the assay instructions.
Receptor Gene Expression. The coding region of the MC3 receptor gene was subcloned into the eukaryotic expression vector CMVneo using a polymerase chain reaction (PCR) strategy as previously described. […] The insert was subsequently checked by dideoxynucleotide sequencing to insure that no errors were induced by the PCR. […]

MC1 receptor [7] = target: T5, MC1 receptor (Homo sapiens, UniProt Q01726); conditions: Chhajlani et al. 1992; cited from earlier work
T5 construct: host or cells: Cos-7 cells transfected with α-MSH receptor cDNA

MC4 receptor [8] = target: T1, MC4 receptor; assay: cAMP generation in COS-1 cells transiently transfected with the MC4 receptor gene; type: cell-based
Source text: as §1
cAMP Assays. For these assays a cAMP assay kit (TRK 432, Amersham Corp.) was employed. […] The cells were maintained in Dulbecco's modified Eagle's medium (GIBCO) containing 4.5 g/100 ml glucose, 10% fetal calf serum, 100 units/ml penicillin and streptomycin, 1 mM sodium pyruvate, and 1 mg/ml Geneticin. […] The precipitate was then centrifuged for 10 min at 1,900×g, and the supernatant was ether extracted, lyophilized, and resuspended in 50 mM Tris, 2 mM EDTA (pH 7.5). cAMP content was then measured by a competitive binding assay according to the assay instructions.

MC3 receptor [9] = target: T3, MC3 receptor; assay: [3H] inositol phosphate (IP) production in Hepa cells transfected with the MC3 receptor
Source text: Receptor Gene Expression. The coding region of the MC3 receptor gene was subcloned into the eukaryotic expression vector CMVneo using a polymerase chain reaction (PCR) strategy as previously described. […] The insert was subsequently checked by dideoxynucleotide sequencing to insure that no errors were induced by the PCR. A rat hepatoma cell line (Hepa) which lacks endogenous melanocortin receptors was transfected with the CMVneo/MC3 receptor construct using the calcium phosphate co-precipitation method. […] Cells were selected for resistance to the neomycin analogue Geneticin (Life Sciences) and clones were subsequently chosen for high levels of receptor mRNA expression by Northern blot analysis.
Inositol Phosphate (IP) Assays. Measurement of inositol phospholipid turnover in Hepa cells was performed according to a modification of previously published methods as follows. […] Cells grown to semi-confluence in multiwell plates were prelabeled with [2-^3 H] myo-inositol in DMEM for 24 hr, incubated in EBSS for 30 min, then incubated for another 15 min in EBSS with 10 mM LiCl. The final incubation was in media with experimental ligand added for up to three min after which ice cold 100% methanol was added and the cells were scraped and extracted with 2 ml chloroform, 10 μl HCl (13 N), and 200 μl of 100 mM EDTA in a 50 ml polypropylene tube. The mixture was then vortexed and centrifuged at 1,900 X g. The supernatant was removed and its pH was adjusted to 7.0 by adding 1 N NaOH. Waters Accel plus QMA SEP-PAK anion exchange cartridges (Waters Chromatography, Millipore Corporation, Milford, Mass.) were used to separate inositol phosphates under differing concentrations of formatelformic acid. The cartridges were pretreated by washing with 10 ml of a solution of 1 M ammonium formate in 0.1 M formic acid followed by 20 ml of distilled water. The samples were applied with a flow rate of approximately 10 ml/min using a 10 ml syringe. IPs were then eluted using 10 mM increments of ammonium formate in a stepwise fashion. Inositol monophosphate was eluted with 10 mM formic acid/100 mM ammonium formate/5 mM disodium tetraborate, inositol bisphosphate was eluted with 20 mM formic acid/200 mM ammonium formate/5 mM disodium tetraborate, and IP3 was eluted with 30 mM formic acid/300 mM ammonium formate/5 mM disodium tetraborate. […] Eluted radioactivity from the pooled fractions (total inositol phosphates) were measured by liquid-scintillation spectrometry (Beckman model LS7800 instrument).

[10] = test system: endogenous vasopressin receptors; assay: intracellular Ca++ concentration in Hepa cells, endogenous vasopressin receptors; type: cell-based, rat
Description: Measurement of Intracellular Ca++ Concentration ([Ca++]i). For these experiments, Hepa cells were detached by incubation in Ca^++ -free EBSS with 2.0 mM EDTA, loaded with 1 μM fura-2/AM (Molecular Probes, Eugene, Oreg.) for 20 min at 37° C. in EBSS containing 0.1% BSA and 25 mM HEPES, washed by centrifugation at 50 X g, and resuspended and maintained in EBSS buffer at room temperature until the time of experimentation. [Ca^++ ]i measurements of cells suspended in a quartz cuvette were obtained using a dual-wavelength modular fluorometer (Spex-Fluorolog 2, Spex Industries, Edison, N.J.) according to previously described methods. DelValle, J. et al., Am. J. Physiol. 262:G420-426 (1992).

[11] = test system: chimeric receptor cH2R/MC3R-3i; assay: [3H] IP production in Hepa cells transfected with chimeric cH2R/hMC3R-3i; type: cell-based; conditions: pretreatment, chimeric cH2R/MC3R-3i
Source text: Chimeric Receptor. […] The chimeric receptor (cH2R/MC3R-3i) was constructed by cassette mutation at the junction of the fifth and sixth transmembrane domains of cH2R. Six PCR primers were used to generate three DNA fragments which were subsequently ligated together. The three PCR-generated fragments consisted of 1) the 5' coding region of the cH2R receptor beginning just prior to the ATG codon and ending with the 3' end of the fifth transmembrane domain; 2) the portion of the MC3 receptor gene encoding its third intracytoplasmic loop; and 3) the 3' coding region of the cH2R beginning with that segment encoding the 5' end of the sixth transmembrane domain and ending slightly past the termination codon. The DNA fragments were cut with appropriate restriction enzymes at pre-engineered restriction sites designed so that the three fragments could be assembled together in only the correct alignment. Restriction sites were also designed to facilitate subcloning the chimeric receptor DNA into CMVneo and the sequencing vector M13. The nucleotide sequence of the CMVneo cH2R/MC3R-3i construct was confirmed prior to expression in Hepa cells.
Inositol Phosphate (IP) Assays.

[12] = read-out: ED50, cAMP generation

T4 sequence (P41149 whole entry): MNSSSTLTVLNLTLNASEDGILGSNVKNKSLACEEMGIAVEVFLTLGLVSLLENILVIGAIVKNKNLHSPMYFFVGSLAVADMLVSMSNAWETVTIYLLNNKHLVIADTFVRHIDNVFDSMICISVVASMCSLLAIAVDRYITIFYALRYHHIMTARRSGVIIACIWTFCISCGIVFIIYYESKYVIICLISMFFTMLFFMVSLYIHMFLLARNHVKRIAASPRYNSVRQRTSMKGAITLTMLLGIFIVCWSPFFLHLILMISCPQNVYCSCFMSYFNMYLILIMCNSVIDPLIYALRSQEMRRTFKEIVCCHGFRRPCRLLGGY
T3 sequence (P41968 whole entry): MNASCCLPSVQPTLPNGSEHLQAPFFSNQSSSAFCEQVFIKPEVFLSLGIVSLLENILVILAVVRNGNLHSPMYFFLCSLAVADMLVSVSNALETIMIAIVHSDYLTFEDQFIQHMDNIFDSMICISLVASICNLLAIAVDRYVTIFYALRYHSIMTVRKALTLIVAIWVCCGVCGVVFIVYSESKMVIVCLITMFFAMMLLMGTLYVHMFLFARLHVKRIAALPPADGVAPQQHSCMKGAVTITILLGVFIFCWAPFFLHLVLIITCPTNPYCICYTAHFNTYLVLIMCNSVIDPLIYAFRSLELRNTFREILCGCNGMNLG
T1 sequence (P32245 whole entry): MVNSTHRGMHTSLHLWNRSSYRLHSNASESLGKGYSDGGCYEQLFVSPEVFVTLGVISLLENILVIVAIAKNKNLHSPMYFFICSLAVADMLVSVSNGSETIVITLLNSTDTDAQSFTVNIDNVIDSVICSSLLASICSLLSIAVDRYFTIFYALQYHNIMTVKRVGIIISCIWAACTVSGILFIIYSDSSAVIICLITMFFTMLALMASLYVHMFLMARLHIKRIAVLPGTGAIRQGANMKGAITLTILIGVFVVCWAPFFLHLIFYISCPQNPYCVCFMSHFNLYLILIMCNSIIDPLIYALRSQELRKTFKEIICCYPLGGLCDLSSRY
T5 sequence (Q01726 whole entry): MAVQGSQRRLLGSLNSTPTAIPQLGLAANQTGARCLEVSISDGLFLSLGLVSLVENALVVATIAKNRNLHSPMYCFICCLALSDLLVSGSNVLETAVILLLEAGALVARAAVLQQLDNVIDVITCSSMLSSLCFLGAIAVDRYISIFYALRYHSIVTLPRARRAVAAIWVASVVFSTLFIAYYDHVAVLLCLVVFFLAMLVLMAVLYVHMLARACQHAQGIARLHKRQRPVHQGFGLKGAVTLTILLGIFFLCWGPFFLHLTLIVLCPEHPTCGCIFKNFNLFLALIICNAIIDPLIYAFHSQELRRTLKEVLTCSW

## CSCC[C@H](NC(=O)[C@@H](NC(=O)[C@@H](N)Cc1ccc(O)cc1)C(C)C)C(=O)NCC(=O)N[C@@H](Cc1c[nH]cn1)C(=O)N[C@@H](Cc1ccccc1)C(=O)N[C@@H](CCCNC(=N)N)C(=O)N[C@@H](Cc1c[nH]c2ccccc12)C(=O)N[C@@H](CC(=O)O)C(=O)N[C@@H](CCCNC(=N)N)C(=O)N1CCC[C@H]1C(=O)NCC(=O)O [Pro^11 y-MSH]
MC4 receptor [1]; α-MSH as reference for maximum response
  efficacy, intracellular cAMP: 75%
MC4 receptor [1]; α-MSH dose response curve as reference for maximum response
  EC50: 100 nM

## SYSMEHFRWGKPVGKKRRPVKVYPNGAEDESAEAFPLEF [ACTH, ACTH(1-39)] [listing 1 of 2 here]
MC1 receptor [2]; [12]
  EC50: ~1 nM
MC4 receptor [3]; read-out: half-maximal effect (EC50), intracellular cAMP
  EC50: 1 nM
MC3 receptor [4]; [12]
  EC50: ~1 nM

## β-endorphin
MC1 receptor [2]
  cAMP response (in words): neither the MC1 receptor nor the MC3 receptor responded
mMC5 receptor
  cAMP response (in words): Neither were the other products of pro-opiomelanocortin processing, β-endorphin, met-enkephlin, or porcine β-lipotropin active
MC4 receptor [3]
  cAMP response (in words): did not respond
MC3 receptor [4]
  cAMP response (in words): neither the MC1 receptor nor the MC3 receptor responded

## SYSMEHFRWGKPVGKKRRPVKVYPNGAEDESAEAFPLEF [ACTH, ACTH(1-39)] [listing 2 of 2 here]
MC1 receptor [2]
  cAMP response (in words): equal potency and efficacy
MC1 receptor [5]
  cAMP production via the MC1 receptor (in words): less potent and less efficacious than α-MSH
MC3 receptor [6]
  cAMP production relative to control unstimulated levels at maximal doses: exceeded 15 times the control
  cAMP response (in words): stimulated cAMP production
MC1 receptor [7]
  affinity in displacing 125I-labeled [Nle4,D-Phe7]α-MSH (in words): equal affinities
MC4 receptor [8]
  cAMP response (in words): marked increase in intracellular cAMP content
MC4 receptor [3]
  cAMP response (in words): equal potency and efficacy
MC3 receptor [4]
  cAMP response (in words): equal potency and efficacy
MC3 receptor [9]; HepA, read-out: maximal stimulation of [3H]-IP production, % of basal unstimulated value
  Emax: 155%
MC3 receptor [9]; Hepa cells, MC3 receptor
  inositol phospholipid turnover dose-response (in words): At low doses (below 10^-11 M) there was a clear stimulatory effect, however, at higher doses, there was a dose dependent inhibitory effect

## [des-acetyl] α-MSH
MC4 receptor [1]
  cAMP response (in words): no difference was observed
MC1 receptor [2]
  cAMP response (in words): identical to those observed for ACTH and α-MSH
MC3 receptor [6]
  cAMP response (in words): no difference was observed
MC3 receptor [4]
  cAMP response (in words): identical to those observed for ACTH and α-MSH

## CSCC[C@H](N)C(=O)N[C@@H](CCC(=O)O)C(=O)N[C@@H](Cc1c[nH]cn1)C(=O)N[C@@H](Cc1ccccc1)C(=O)N[C@@H](CCCNC(=N)N)C(=O)N[C@@H](Cc1c[nH]c2ccccc12)C(=O)NCC(=O)O [ACTH(4-10)]
MC4 receptor [1]; read-out: efficacy, % of the maximal response of ACTH (1-13)
  Emax: 30%

## Thr^1, Pro^11 y-MSH
MC4 receptor [1]
  cAMP response (in words): diminished both the potency and efficacy

## [Met]enkephalin
MC1 receptor [2]
  cAMP response (in words): neither the MC1 receptor nor the MC3 receptor responded
mMC5 receptor
  cAMP response (in words): Neither were the other products of pro-opiomelanocortin processing, β-endorphin, met-enkephlin, or porcine β-lipotropin active
MC4 receptor [3]
  cAMP response (in words): did not respond
MC3 receptor [4]
  cAMP response (in words): neither the MC1 receptor nor the MC3 receptor responded

## Rat ACTH: rat ACTH, which differs from human ACTH in two amino acids (SYSMEHFRWGKPVGKKRRPVKVYPNVAENESAEAFPLEF; Corticotropin; UniProt P01194 124-162, looked up)
mMC5 receptor
  cAMP response (in words): produced the same results

## NC(=O)CC[C@@H]1NC(=O)[C@H](Cc2ccccc2)NC(=O)[C@H](Cc2ccc(O)cc2)NC(=O)[C@@H](N)CSSC[C@@H](C(=O)N2CCC[C@H]2C(=O)N[C@@H](CCCN=C(N)N)C(=O)NCC(N)=O)NC(=O)[C@H](CC(N)=O)NC1=O [vasopressin]
[10]
  effect on [Ca++]i (in words): increase in [Ca^++ ]i upon stimulation of their endogenous vasopressin receptors

## CCCC(=O)Nc1ncnc2c1ncn2[C@@H]1O[C@@H]2COP(=O)(O)O[C@H]2[C@H]1OC(=O)CCC [dbcAMP, dibutryl cAMP]
MC3 receptor [9]
  effect on α-MSH stimulated [3H]-IP production (in words): dose dependently inhibited the level of [^3 H]-IP turnover in response to α-MSH

## O=S(=O)(NCCNCC=Cc1ccc(Br)cc1)c1cccc2cnccc12 [H-89, N-[2-(p-bromocinnamyl-amino)ethyl]-5-isoquinolinesulfonamide]
[11]
  effect on inhibitory phase of histamine [3H]-IP dose response curve (in words): abolished by pretreatment with H-89
MC3 receptor [9]
  effect on α-MSH stimulated [3H]-IP production (in words): restoration of the higher levels of [^3 H]-IP products observed with 10^-11 M α-MSH
MC3 receptor [9]; pretreatment, 10^-8 M α-MSH, Hepa cells, MC3 receptor
  concentration of maximum effect on α-MSH stimulated [3H]-IP production: 1 µM

B1: β-lipotropin (peptide, UniProt P01192 177-267, looked up, listed as Lipotropin beta)
Lipotropin beta: ELAGAPPEPARDPEAPAEGAAARAELEYGLVAEAEAAEKKDEGPYKMEHFRWGSPPKDKRYGGFMTSEKSQTPLVTLFKNAIVKNAHKKGQ
notes: product of pro-opiomelanocortin processing
mMC5 receptor
  cAMP response (in words): Neither were the other products of pro-opiomelanocortin processing, β-endorphin, met-enkephlin, or porcine β-lipotropin active
MC4 receptor [3]
  cAMP response (in words): small increase in cAMP
